# From patent US7056656B1, “Tat-derived oligourea and its method of production and use in high affinity and specific binding HIV-1 TAR RNA” (priority 1999, dated 2006)
# Key:
# [1] = target: T1, proteinase K (Parengyodontium album, UniProt P06873); assay: Proteinase K digestion of RNA crosslink products (protease stability); format: in vitro ADME; conditions: 55° C., fifteen minutes after UV irradiation
# Protocol: FIG. 3. Site-specific photocrosslinking reaction of TAR RNA labeled with 4-thioUracil at position 23 with the oligourea. For photochemical reactions, RNA duplex was prepared by hybridizing two strands.^5,7 Strand 1 of the duplex was 5′-end labeled with 32p Preformed RNA duplexes (40 nM) in the absence or presence of the oligourea (100 nM) were irradiated ([…]) and analyzed by denaturing gels as described earlier.^5,7 Proteinase K digestion was performed at 55° C. for fifteen minutes after LW irradiation. R—R and R—P XL indicate the RNA—RNA and RNA-oligourea crosslink, respectively.
# To probe the oligourea-RNA interactions and determine the proteolysis stability of oligourea, we synthesized TAR RNA containing 4-thioU at position 23 and performed photocrosslinking experiments as described earlier (FIG. 3).^5,7 Irradiation of the oligourea-RNA complex yields a new band with electrophoretic mobility less than that of the RNA (lane 4). Both the oligourea and UV (360 nm) irradiation are required for the formation of this crosslinked RNA-oligourea complex (see lanes 3 and 4). Since the crosslinked oligourea-RNA complex is stable to alkaline pH (9.5), high temperature (85° C.) and denaturing conditions (8M urea, 2% SDS), we conclude that a covalent bond is formed between TAR RNA and the oligourea during the crosslinking reaction.
# [2] = tested on: Tat transactivation (HIV-1 LTR); assay: Inhibition of Tat transactivation, CAT activity from integrated HIV-1 LTR of HL3TI cells; format: cell-based; conditions: luciferase as control
# Protocol: FIG. 4. […] CAT activity expressed from the integrated HIV-1 LTR of HL3TI Cells with increasing amounts of oligourea is shown. Luciferase activity was a control experiment to monitor the transfection inhibition of pSV2Tat by the addition of oligourea. CAT and Luciferase activities were measured from multiple experiments and normalized to 100%.
# [3] = tested on: HIV-1 TAR RNA (wild-type); assay: Specificity of oligourea-TAR complex formation by competition with unlabeled TAR RNAs; format: binding
# Source text: (§1) FIG. 2A: Secondary structure of wild-type TAR RNA used in this study. Wild-type TAR RNA spans the minimal sequences that are required for Tat responsiveness in vivo ^14 and for in vitro binding of Tat-derived peptides.^9 Wild-type TAR contains two non-wild-type base pairs to increase transcription by T7 RNA polymerase. Mutant M0 TAR contained no bulge residue in its sequence. In mutant G26C, a base-pair in the upper stem of TAR RNA, G26-C39 was substituted by C26-G39. FIG. 2B: Electrophoretic mobility shift analysis for the Tat-derived oligourea binding to wild-type and trinucleotide bulge mutant (M0) TAR RNA. 5′-end labeled TAR RNAs (40 nM) were heated to 85° C. for three minutes mm and then cooled to room temperature in TK buffer (50 mM Tris-HCl pH 7.4), 20 mM KCl, 0.1% Triton X-100). The oligourea (150 nM) was added to wild-type or mutant TAR and incubated at room temperature for one hour. After adding 30% glycerol, the oligourea-RNA complexes were resolved on a non-denaturing 12% acrylamide gel and visualized by autoradiography or phosphorimaging. FIG. 2C: Specificity of the oligourea-TAR complex formation determined by competition experiments. Oligourea-RNA complexes were formed in the presence of increasing concentrations of unlabeled wild-type or mutant TAR RNAs. Concentrations of the competitor RNAs in lanes 3, 4, 5, 6 were 50, 100, 150, and 200 nM, respectively. Lanes 1 and 2 were marker lanes showing RNA and oligoureaRNA complexes. Oligourea-RNA complexes are labeled as R—P.
# Specificity of the oligourea-TAR RNA complex formation was addressed by competition experiments (FIG. 2c).
# Two base-pairs immediately above the pyrimidine bulge are critical for Tat recognition.^9 To determine whether the oligourea recognizes specific base-pairs in the stem region of TAR RNA or only a trinucleotide bulge containing RNA, we synthesized a TAR mutant where the G26-C39 base pair was substituted by a C26-G39 base-pair (FIG. 2a).
# [4] = tested on: HIV-1 TAR RNA (wild-type); assay: Direct and competition electrophoretic mobility assays, oligourea/peptide-TAR RNA complexes; format: binding; conditions: for Kd: multiple sets of experiments, read-out: KD (equilibrium dissociation constant) for TAR RNA
# Source text: as §1
# To compare the RNA-binding affinities of the oligourea to natural peptide, we synthesized a tat-derived peptide (Tyr47 to Arg57) containing the RNA-binding domain of Tat protein (FIG. 1). Dissociation constants of the Tat peptide-RNA complexes were determined from multiple sets of experiments under the same conditions used for oligourea-TAR RNA complexes. […] A relative dissociation constant (KREL) can be determined by measuring the ratios of wild-type Tat peptide to the oligourea dissociation constants (KD) for TAR RNA.
# [5] = tested on: mutant TAR RNA without the bulge residues (M0); assay: Electrophoretic mobility shift analysis with trinucleotide bulge mutant (M0) TAR RNA; format: binding, HIV-1; conditions: M0 TAR RNA 40 nM, oligourea 150 nM
# Source text: as §1, with “Lanes 1 and 2 were marker lanes showing RNA and oligoureaRNA complexes. Oligourea-RNA complexes are labeled as R—P.” left out
# [6] = target: T1, proteinase K; conditions: similar proteinase K treatment; cited from earlier work
# [7] = tested on: Tat peptide (47-57), arginine-rich RNA-binding domain (HIV-1); assay: EMSA; conditions: printed 0.78+0.05; same conditions as the oligourea
# [8] = target: Tat-derived oligourea (unnatural urea backbone carrying Tat 48-57 side chains) (HIV-1) (UniProt P04608); assay: EMSA
# T1 sequence (P06873 106-384): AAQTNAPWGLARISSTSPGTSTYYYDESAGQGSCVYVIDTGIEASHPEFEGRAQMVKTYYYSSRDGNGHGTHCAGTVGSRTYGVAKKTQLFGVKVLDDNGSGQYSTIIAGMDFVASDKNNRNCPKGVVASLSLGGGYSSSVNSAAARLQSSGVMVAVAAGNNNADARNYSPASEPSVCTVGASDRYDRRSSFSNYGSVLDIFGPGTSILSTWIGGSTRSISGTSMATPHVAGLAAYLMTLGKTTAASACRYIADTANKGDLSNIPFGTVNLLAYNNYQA
substance,measurement,setting,value
GRKKRRQRRR [oligourea],stability of RNA crosslink products to proteinase K digestion,[1],completely stable
same,Tat transactivation (CAT activity) with increasing amounts of oligourea,[2],Inhibition of Tat transactivation
same,competition by mutant TAR (G26C) for oligourea binding to TAR RNA,[3]; competitor G26C TAR RNA (G26-C39 replaced by C26-G39),did not inhibit
same,competition by mutant TAR RNA without a trinucleotide bulge for oligourea binding to wild-type TAR RNA,[3]; competitor M0 TAR RNA 50-200 nM,not able to compete
same,competition by mutant TAR RNA with one base bulge for oligourea binding to wild-type TAR RNA,"[3]; competitor one base bulge TAR RNA, data not shown",not able to compete
same,oligourea-RNA complex formation on addition of unlabeled wild-type TAR RNA,[3]; competitor wild-type TAR RNA 50-200 nM,inhibited
same,relative dissociation constant KREL (ratio of wild-type Tat peptide KD to oligourea KD for TAR RNA),[4]; wild-type TAR RNA,7.09
same,binding to TAR RNA (mobility shift),"[4]; wild-type TAR RNA 40 nM, oligourea 150 nM",able to bind TAR RNA
same,Kd,[4]; wild-type TAR RNA,110 ± 70 nM
same,binding to mutant TAR RNA without the bulge residues,[5],failed to bind
Tat peptide (47–57): tat-derived peptide (Tyr47 to Arg57) containing the RNA-binding domain of Tat protein [reference compound],Kd,[4]; wild-type TAR RNA,780 nM
Tat: Tat of the Tat-TAR photocrosslink products from earlier cited work (ref. 5),stability of Tat-TAR photocrosslink products to proteinase K treatment,[6],complete loss of RNA-protein crosslink
wild-type TAR RNA,Kd,[7],780 nM
same,Kd,[8],110 nM
